Experimental data reported in patent US7829568B2, “Substituted 5,6,7,8-tetrahydroimidazo[1,2-a]pyridin-2-ylamine compounds and their use for producing drugs” (Gruenenthal GmbH, priority 2005, dated 2010).

Tested on: batrachotoxin (BTX) binding site of the sodium channel
Assay: Affinity to the batrachotoxin (BTX) binding site of the sodium channel
Set-up: species or system rat
Details: [3H]-batrachotoxinin A20 α-benzoate 10 nM; synaptosomes from rat cerebral cortex; test concentration not given

Row | SMILES | BTX inhibition (rat) (% inhibition) [%]
1 | CN(C(=O)c1cccc(Cl)c1)c1nc2n(c1C(=O)Nc1ccc(OCc3ccccc3)cc1)CCCC2 [Example 129, 2-[(3-chloro-benzoyl)-methyl-amino]-5,6,7,8-tetrahydro-imidazo[1,2-a]pyridine-3-carboxylic acid (4-benzyloxy-phenyl)-amide] | 76
2 | CN(C(=O)c1cccc(Cl)c1)c1nc2n(c1C(=O)N1CCN(CCc3ccccc3)CC1)CCCC2 [Example 106, 3-chloro-N-methyl-N-[3-(4-phenethyl-piperazine-1-carbonyl)-5,6,7,8-tetrahydro-imidazo[1,2-a]pyridin-2-yl]-benzamide] | 40
3 | CN(C(=O)c1cccc(Cl)c1)c1nc2n(c1C(=O)NC1CCN(Cc3ccccc3OCc3ccccc3)C1)CCCC2 (stereo not shown) [Example 59, 2-[(3-chloro-benzoyl)-methyl-amino]-5,6,7,8-tetrahydro-imidazo[1,2-a]pyridine-3-carboxylic acid [1-(2-benzyloxy-benzyl)-pyrrolidin-3-yl]-amide] | 95
4 | CCCCN(C(=O)c1cccc(Cl)c1)c1nc2n(c1C(=O)N1CCC(O)(c3cccc(C(F)(F)F)c3)CC1)CCCC2 [Example 175, N-butyl-3-chloro-N-{3-[4-hydroxy-4-(3-trifluoromethyl-phenyl)-piperidine-1-carbonyl]-5,6,7,8-tetrahydro-imidazo[1,2-a]pyridin-2-yl}-benzamide] | 65
5 | CN(C(=O)c1ccccc1)c1nc2n(c1C(=O)NC(c1ccccc1)c1ccc(Cl)cc1)CCCC2 (stereo not shown) [Example 166, 2-(benzoyl-methyl-amino)-5,6,7,8-tetrahydro-imidazo[1,2-a]pyridine-3-carboxylic acid [(4-chloro-phenyl)-phenyl-methyl]-amide] | 72
6 | CN(C(=O)c1cccc2ccccc12)c1nc2n(c1C(=O)N1CCN(c3ccccc3Cl)CC1)CCCC2 [Example 148, naphthalene-1-carboxylic acid {3-[4-(2-chloro-phenyl)-piperazine-1-carbonyl]-5,6,7,8-tetrahydro-imidazo[1,2-a]pyridin-2-yl}-methyl-amide] | 35
7 | CN(C(=O)c1ccccc1)c1nc2n(c1C(=O)NC1CCN(Cc3c(Cl)cccc3Cl)C1)CCCC2 (stereo not shown) [Example 101, 2-(benzoyl-methyl-amino)-5,6,7,8-tetrahydro-imidazo[1,2-a]pyridine-3-carboxylic acid [1-(2,6-dichloro-benzyl)-pyrrolidin-3-yl]-amide] | 54
8 | CCCCN(C(=O)c1cccc(Cl)c1)c1nc2n(c1C(=O)NC(C)CCc1ccccc1)CCCC2 (stereo not shown) [Example 145, 2-[butyl-(3-chloro-benzoyl)-amino]-5,6,7,8-tetrahydro-imidazo[1,2-a]pyridine-3-carboxylic acid (1-methyl-3-phenyl-propyl)-amide] | 67
9 | CN(C(=O)c1cccc2ccccc12)c1nc2n(c1C(=O)NCc1ccccc1OC(F)(F)F)CCCC2 [Example 99, 2-[methyl-(naphthalene-1-carbonyl)-amino]-5,6,7,8-tetrahydro-imidazo[1,2-a]pyridine-3-carboxylic acid 2-trifluoromethoxy-benzylamide] | 33
10 | CCCCN(C(=O)c1cccc(Cl)c1)c1nc2n(c1C(=O)NCc1ccccc1OCC)CCCC2 [Example 43, 2-[butyl-(3-chloro-benzoyl)-amino]-5,6,7,8-tetrahydro-imidazo[1,2-a]pyridine-3-carboxylic acid 2-ethoxy-benzylamide] | 40
11 | CN(C(=O)c1cccc(Cl)c1)c1nc2n(c1C(=O)NC1CCN(Cc3c(Cl)cccc3Cl)C1)CCCC2 (stereo not shown) [Example 83, 2-[(3-chloro-benzoyl)-methyl-amino]-5,6,7,8-tetrahydro-imidazo[1,2-a]pyridine-3-carboxylic acid [1-(2,6-dichlor-benzyl)-pyrrolidin-3-yl]-amide] | 80
12 | CCCCN(C(=O)c1ccc(F)c(F)c1)c1nc2n(c1C(=O)N(C)C1CCN(Cc3cc4ccccc4o3)C1)CCCC2 (stereo not shown) [Example 34, 2-[butyl-(3,4-difluoro-benzoyl)-amino]-5,6,7,8-tetrahydro-imidazo[1,2-a]pyridine-3-carboxylic acid (1-benzofuran-2-ylmethyl-pyrrolidin-3-yl)-methyl-amide] | 83
13 | CCCCN(C(=O)c1ccc(F)c(F)c1)c1nc2n(c1C(=O)NCC1COc3ccccc3O1)CCCC2 (stereo not shown) [Example 96, 2-[butyl-(3,4-difluoro-benzoyl)-amino]-5,6,7,8-tetrahydro-imidazo[1,2-a]pyridine-3-carboxylic acid (2,3-dihydro-benzo[1,4]dioxin-2-ylmethyl)-amide] | 33
14 | CN(C(=O)c1cccc2ccccc12)c1nc2n(c1C(=O)N1CCN(Cc3cc4ccccc4o3)CC1)CCCC2 [Example 108, naphthalene-1-carboxylic acid [3-(4-benzofuran-2-ylmethyl-piperazine-1-carbonyl)-5,6,7,8-tetrahydro-imidazo[1,2-a]pyridin-2-yl]-methyl-amide] | 41
15 | CN(C(=O)c1ccccc1)c1nc2n(c1C(=O)NCc1ccc(Cl)cc1)CCCC2 [Example 157, 2-(benzoyl-methyl-amino)-5,6,7,8-tetrahydro-imidazo[1,2-a]pyridine-3-carboxylic acid 4-chloro-benzylamide] | 43
16 | CN(C(=O)c1ccccc1)c1nc2n(c1C(=O)Nc1ccc3c(c1)OCO3)CCCC2 [Example 85, 2-(benzoyl-methyl-amino)-5,6,7,8-tetrahydro-imidazo[1,2-a]pyridine-3-carboxylic acid benzo[1,3]dioxol-5-ylamide] | 30
17 | CN(C(=O)c1cccc2ccccc12)c1nc2n(c1C(=O)N1CCN(CC=Cc3ccccc3)CC1)CCCC2 [Example 173, naphthalene-1-carboxylic acid methyl-{3-[4-(3-phenyl-allyl)-piperazine-1-carbonyl]-5,6,7,8-tetrahydro-imidazo[1,2-a]pyridin-2-yl}-amide] | 74
18 | CCCCN(C(=O)c1cccc(Cl)c1)c1nc2n(c1C(=O)NC(C)c1cccc3ccccc13)CCCC2 (stereo not shown) [Example 39, 2-[butyl-(3-chloro-benzoyl)-amino]-5,6,7,8-tetrahydro-imidazo[1,2-a]pyridine-3-carboxylic acid (1-naphthalen-1-yl-ethyl)-amide] | 47
19 | CN(C(=O)c1cccc(Cl)c1)c1nc2n(c1C(=O)N1CCN(c3cccc(C(F)(F)F)c3)CC1)CCCC2 [Example 14, 3-chloro-N-methyl-N-{3-[4-(3-trifluoromethyl-phenyl)-piperazine-1-carbonyl]-5,6,7,8-tetrahydro-imidazo[1,2-a]pyridin-2-yl}-benzamide] | 41
20 | CN(C(=O)c1cccc2ccccc12)c1nc2n(c1C(=O)NCc1cccc(Cl)c1Cl)CCCC2 [Example 33, 2-[methyl-(naphthalene-1-carbonyl)-amino]-5,6,7,8-tetrahydro-imidazo[1,2-a]pyridine-3-carboxylic acid 2,3-dichlor-benzylamide] | 49
21 | CN(C(=O)c1cccc(Cl)c1)c1nc2n(c1C(=O)NC1CCCCC1OCc1ccccc1)CCCC2 (stereo not shown) [Example 67, 2-[(3-chloro-benzoyl)-methyl-amino]-5,6,7,8-tetrahydro-imidazo[1,2-a]pyridine-3-carboxylic acid (2-benzyloxy-cyclohexyl)-amide] | 51
22 | CCCCN(C(=O)c1cccc(Cl)c1)c1nc2n(c1C(=O)N1CCN(Cc3ccc(Cl)cc3)CC1)CCCC2 [Example 140, N-butyl-3-chloro-N-{3-[4-(4-chloro-benzyl)-piperazine-1-carbonyl]-5,6,7,8-tetrahydro-imidazo[1,2-a]pyridin-2-yl}-benzamide] | 81
23 | CCCCN(C(=O)c1cccc(Cl)c1)c1nc2n(c1C(=O)NCc1ccc(F)cc1F)CCCC2 [Example 47, 2-[butyl-(3-chloro-benzoyl)-amino]-5,6,7,8-tetrahydro-imidazo[1,2-a]pyridine-3-carboxylic acid 2,4-difluoro-benzylamide] | 44
24 | CN(C(=O)c1cccc2ccccc12)c1nc2n(c1C(=O)Nc1ccc(C(C)(C)C)cc1)CCCC2 [Example 170, 2-[methyl-(naphthalene-1-carbonyl)-amino]-5,6,7,8-tetrahydro-imidazo[1,2-a]pyridine-3-carboxylic acid (4-tert-butyl-phenyl)-amide] | 80
25 | CCCCN(C(=O)c1cccc(Cl)c1)c1nc2n(c1C(=O)Nc1ccc3c(c1)OCCO3)CCCC2 [Example 181, 2-[butyl-(3-chloro-benzoyl)-amino]-5,6,7,8-tetrahydro-imidazo[1,2-a]pyridine-3-carboxylic acid (2,3-dihydro-benzo[1,4]dioxin-6-yl)-amide] | 82
26 | Cc1ccc(C)c(N2CCN(C(=O)c3c(N(C)C(=O)c4cccc(Cl)c4)nc4n3CCCC4)CC2)c1 [Example 100, 3-chloro-N-{3-[4-(2,5-dimethyl-phenyl)-piperazine-1-carbonyl]-5,6,7,8-tetrahydro-imidazo[1,2-a]pyridin-2-yl}-N-methyl-benzamide] | 74
27 | Cc1ccc(CCNC(=O)c2c(N(C)C(=O)c3cccc4ccccc34)nc3n2CCCC3)cc1 [Example 49, 2-[methyl-(naphthalene-1-carbonyl)-amino]-5,6,7,8-tetrahydro-imidazo[1,2-a]pyridine-3-carboxylic acid (2-p-tolyl-ethyl)-amide] | 37
28 | CN(C(=O)c1cccc2ccccc12)c1nc2n(c1C(=O)NCC(c1ccccc1)c1ccccc1)CCCC2 [Example 46, 2-[methyl-(naphthalene-1-carbonyl)-amino]-5,6,7,8-tetrahydro-imidazo[1,2-a]pyridine-3-carboxylic acid (2,2-diphenyl-ethyl)-amide] | 67
